Experimental data reported in patent publication US10077290B2, “Stabilized antiviral fusion helices” (priority 2011, dated 2018).
Entries after “also recorded” stand apart in the source; their conditions may differ.

Legend:
RSV-A2 [1] = assay: RSV-A2 infection of A549 cells at 1 MOI, Hep-2 plaque assay titers; assay type: cell-based, Respiratory Syncytial Virus (RSV); conditions: 5 μM peptide
Experimental: In this study A549 cells were plated in a 24 well plate at 30,000 cells/well. The following day, the cells were treated with 5 μM of the indicated stapled SAHF peptide or volume-equivalent DMSO vehicle, followed by RSV-A2 infection at 1 MOI. The cells were infected for 2 h, and the infection medium replaced with 400 μl of DMEM containing 5% FBS and 5 μM of the indicated stapled SAHF peptide. Cells were harvested along with the supernantant 24 h post infection, vortexed for 10 sec, and the supernatant collected, leaving the cell pellet behind. Hep-2 cells were plated on a 24 well plate at 60,000 cells/well the day before use. Plaque assay was performed on Hep-2 cells using the collected supernatant and titers determined at 5 days post infection of Hep-2 cells. The results of this analysis are shown in FIG. 14 in which titers are shown as log 10 pfu/ml and the values represent the mean+/−SEM for two independent experiments (***p<0.001; ****p<0.0001).

RgRSV = assay: Intranasal RgRSV infection of BALB/c mice after intranasal peptide; assay type: in vivo
Experimental: One hour post treatment, three groups of mice were inoculated with a single dose of RgRSV at 1×10^6 pfu/mouse, with the fourth group receiving a mock inoculation. Mice were sacrificed at 24 hours post infection and the noses harvested, sectioned, stained with DAPI and imaged with an Olympus fluorescent microscope (FIG. 16A; original magnification 20×). Image J analysis was performed on the acquired images (FIG. 16B) and average GFP positive (green) and DAPI positive (blue) cells were calculated from eight images (4 sections) per mouse (bars represent percent GFP positive of total DAPI-positive cells present in the images and error bars represent mean+/−SEM. *, p<0.001). FIG. 16C depicts the results of hematoxylin and eosin staining of the nose sections (original magnification 20×, insets 100×) In FIG. 16C black arrows highlight thickened mucosa.

RSV-A2 [2] = assay: Infection of A549 cells at 0.1 MOI, Hep-2 plaque assay titers: RSV-A2; assay type: cell-based, Respiratory Syncytial Virus (RSV); conditions: 5 μM peptide
Experimental: (§1) In this study A549 cells were plated in a 24 well plate at 30,000 cells/well. The following day, the cells were treated with 5 μM of the indicated stapled SAHF peptide or volume-equivalent DMSO vehicle, followed by infection with RSV-A2, RSV 2-20, or RSV-rA2Line19F within 30 minutes at 0.1 MOI. The supernatant was collected 24 h post infection, and applied to Hep-2 cells that were plated the day prior on a 24 well plate at 60,000 cells/well. Plaque assays were performed on Hep-2 cells using the collected supernatant and titers determined at 5 days post infection of Hep-2 cells. The results of this analysis are shown in FIGS. 15A, 15B and 15C in which titers are shown as pfu/ml and the values represent the mean+/−SEM for two independent experiments (***p<0.001; ****p<0.0001).

RSV-rA2Line19F = assay: Infection of A549 cells at 0.1 MOI, Hep-2 plaque assay titers: RSV-rA2Line19F; assay type: cell-based, Respiratory Syncytial Virus (RSV); conditions: 5 μM peptide
Experimental: as §1

RSV 2-20 = assay: Infection of A549 cells at 0.1 MOI, Hep-2 plaque assay titers: RSV 2-20; assay type: cell-based, Respiratory Syncytial Virus (RSV); conditions: 5 μM peptide
Experimental: as §1

RSV-A2 [3] = assay: RSV-A2 lung infection of BALB/c mice after prophylactic intranasal peptide; assay type: in vivo; conditions: 125 μM intranasally, dosing and inoculation repeated at 16 hours, 4 days after second infection
Experimental: One hour post treatment, three groups of mice were inoculated with a single dose of RSV-A2 at 1×10^6 pfu/mouse. Peptide dosing and viral inoculation was repeated 16 hours post-infection. The fourth group was treated with volume-equivalent vehicle and mock-infected. Two mice from each group were sacrificed 4 days after the second infection and left lung lobes harvested after 1% paraformaldehyde perfusion, followed by cryopreservation in OCT. Sections (5 μm) were treated with 1:1000 dilution of rabbit anti-RSV polyclonal antibody (Millipore) overnight followed by anti-rabbit antibody conjugated to Alexa Fluor 555 (1:400) (red) (Molecular Probes) for 1 h. Sections were washed and mounted with medium containing DAPI (blue) and viewed with an Olympus fluorescent microscope (FIG. 17A; original magnification 20×). Image J analysis was performed on the acquired images and the percentage RSV-positive cells (red) of total DAPI-positive cells (blue) determined from 8 images (4 sections) per mice (FIG. 17B; .error bars represent mean+/−SEM; *, p<0.0001). Four days after the second infection, bronchoalveolar lavage (BAL) was performed on one mouse from each group and BAL supernatant used to determine the viral titers by plaque assay on Hep-2 cells (FIG. 17C; error bars represent mean+/−SEM of plaques counted per in vivo specimen; *, p<0.05). Also at four days after the second infection, cranial and caudal lobes of the right lung from two mice per group were snap frozen on dry ice. A lung homogenate was generated from the cranial lobe and supernatant subjected to viral titer determination (log 10 pfu/ml) (FIG. 17D; error bars represent mean+/−SEM; *, p<0.05). Total RNA was isolated from the caudal lobe of the right lung and quatitative RT-PCR was performed for the RSV-N gene. The results of this analysis are presented in FIG. 17E in which the bar graphs represent the RSV-N gene expression normalized to the mock-infected tissue.

FD8SISQVNXKINQSLAFI8KSDELLXNVNAGKST (FDXSISQVNXKINQSLAFIXKSDELLXNVNAGKST; two hydrocarbon staples; MOD_RES (3)..(3) Any amino acid; (3)..(10) Crosslink between residues; MOD_RES (10)..(10) Any amino acid; MOD_RES (20)..(20) Any amino acid; (20)..(27) Crosslink between residues; MOD_RES (27)..(27) Any amino acid) [SAHF-H, J]
RSV-A2 infection (viral titers) (RSV-A2 [1]): inhibit RSV-A2 infection of A549 cells
intranasal RgRSV infection (percent GFP positive cells in nose sections) (RgRSV; 125 μM intranasally one hour before RgRSV, 24 hours post infection): blocks intranasal RgRSV infection
inflammation in nose sections (hematoxylin and eosin staining) (RgRSV; RgRSV-infected, 125 μM intranasally): comparatively decreased inflammatory cells
viral infection by RSV-A2 (titers) (RSV-A2 [2]): prevents viral infection
viral infection by RSV-rA2 Line 19F (titers) (RSV-rA2Line19F): prevents viral infection
viral infection by RSV 2-20 (titers) (RSV 2-20): prevents viral infection
RSV-A2 lung infection, by each measure (RSV-positive cells, BAL and lung homogenate titers, RSV-N gene) (RSV-A2 [3]): inhibited RSV infection; also recorded: inhibits RSV-A2 lung infection
